Test results published in patent US12678387B2, “Composition for alleviating hair loss or promoting hair growth” (LG HOUSEHOLD & HEALTH CARE LTD., priority 2020, dated 2026).

Key:
androgen receptor = test: Androgenic activity: MMTV-Luc transcriptional activation assay in 22Rv1 cells with DHT; assay type: cell-based, human; details: 10 μg/mL together with 1 nM DHT, 24 hours
Protocol: The stable cell line was maintained by subculturing using RPMI1640 and 10% fetal bovine serum (GIBCO BRL, Gaithersburg, MD, USA). For transcriptional activation assay, the cells were seeded in a 96-well plate, with 25,000 cells per well, while replacing the medium with phenol red-free RPMI1640 containing 5% charcoal-stripped fetal bovine serum. […] The cell culture was treated and incubated with CCK-8 at 1:10 for 2 hours. 2 hour later, the absorbance of each well was measured at 450 nm. All the experiments were 3 times and the absorbance was averaged.

Wnt/β-catenin signaling = test: Wnt/β-catenin luciferase reporter assay in Wnt Reporter HEK293A cells; assay type: cell-based
Text: In general, the Wnt/β-catenin signaling activated in the dermal papillae during transition from the […] to the anagen transition in the hair growth cycle begins as the hair starts to grow and occurs throughout the anagen phase. In the telogen and catagen phases, the Wnt/β-catenin signaling decreases or disappears, resulting in degeneration of hair follicles and shedding of hair. Therefore, it was investigated in the examples how much the momordin Ic, platycodin D2, polygalacin D or pseudoginsenoside RT5 of the present disclosure contributes to the amplification of Wnt/β-catenin signaling.
Wnt3a protein was used as a positive control group for amplifying Wnt/β-catenin signaling, and DMSO was used as a negative control group. After seeding Wnt Reporter HEK293A cells in a 96-well culture plate, with 3×10^4 cells per well, and then treating with the momordin Ic, platycodin D2, polygalacin D or pseudoginsenoside RT5 of the present disclosure as described in Table 5, reporter assay was conducted using a Promega's luciferase assay kit (E1960). The experiment was conducted according to the manufacturer's instructions and the activity of the Wnt/β-catenin promoter was measured using a luminometer (Victor; PerkinElmer, Waltham, Massachusetts, USA).

[1] = tested on: Human-derived dermal papilla cells (DPCs); test: Enhancement of mitochondrial activity of dermal papilla cells (JC-1 method); assay type: cell-based
Protocol: Human-derived dermal papilla cells (DPCs) were purchased from PromoCell. The DPCs were cultured in DMEM (Hyclone Inc., UT, USA) containing 5% fetal bovine serum (FBS; GIBCO, NY, USA), 100 units/mL penicillin and 100 μg/mL streptomycin under the condition of 37° C. and 5% CO2. The cultured DPCs were seeded onto a 96-well plate at 3,000 cells/well and then cultured for 24 hours under a 0.1% serum condition. […] After the incubation, the degree of cell proliferation was evaluated by the JC-1 method. The cell culture was treated and incubated with JC-1 at 1:100 for 1 hour. 1 hour later, the fluorescence of each well was measured at 590 nm and 530 nm. All the experiments were 3 times and the fluorescence intensity was averaged. The result was expressed as percentage of the control group as 100.

[2] = tested on: Human-derived dermal papilla cells (DPCs); test: Enhancement of activity of dermal papilla cells (CCK-8 method); assay type: cell-based
Protocol: Human-derived dermal papilla cells (DPCs) were purchased from PromoCell. The DPCs were cultured in DMEM (Hyclone Inc., UT, USA) containing 5% fetal bovine serum (FBS; GIBCO, NY, USA), 100 units/mL penicillin and 100 μg/mL streptomycin under the condition of 37° C. and 5% CO2. The cultured DPCs were seeded onto a 96-well plate at 3,000 cells/well and then cultured for 24 hours under a 0.1% serum condition. […] After the incubation, the enhancement of cellular activity was evaluated by the CCK method. The cell culture was treated and incubated with CCK-8 at 1:10 for 1 hour. 1 hour later, the absorbance of each well was measured at 450 nm. All the experiments were 3 times and the absorbance was averaged. The result was expressed as percentage of the control group as 100.

[3] = 10 μg/mL, incubated for a day, percentage of the control group as 100

With CC(C)(O)[C@H]1CC[C@@](C)([C@H]2CC[C@]3(C)[C@@H]2[C@H](O)C[C@@H]2[C@@]4(C)CC[C@H](O)C(C)(C)[C@@H]4[C@@H](O[C@@H]4O[C@H](CO)[C@@H](O)[C@H](O)[C@H]4O)C[C@]23C)O1 [Pseudoginsenoside RT5, pseudoginsenoside RT5] the “Inhibition of androgenic activity (%)” value (androgen receptor) was 8%, the “Wnt signaling activity for activating hair follicles (%)” value (Wnt/β-catenin signaling; 10 μg/mL, untreated group 100%) was 120% and the “Wnt signaling activity (in words)” value (Wnt/β-catenin signaling; summary of Table 5) was “superior Wnt signaling activity”. The “Mitochondrial activity of dermal papilla cells (%)” value [1, 3] was 112%, the “Effect on mitochondrial activity of dermal papilla cells (in words)” value ([1]; summary of Table 4) was “superior effect of enhancing the mitochondrial activity” and the “Activity of dermal papilla cells (%)” value [2, 3] was 141%. The “Effect on activity and proliferation of dermal papilla cells (in words)” value ([2]; summary of Table 3) was “superior effect of enhancing the activity of dermal papilla cells”.
